The text below walks through data of patent publication US20140349862A1, “METHODS AND COMPOSITIONS FOR THERAPEUTIC DRUG MONITORING AND DOSING BY POINT OF CARE PHARMACOKINETIC PROFILING” (priority 2011, published 2014).

The structures appear in SMILES notation. Like-named read-outs stand apart in the source and are kept apart here.

Data set [1] in a line: clinical. The note with it: human, in vivo. The source says: To determine whether Abraxane PK has enough variability to benefit from therapeutic drug monitoring, we performed a PK analysis using all published literature on Abraxane PK. […] J Clin Oncol. 23:7785-93.). […] It is expected that Genexol-PM and Nanoxel would have the same PK variations. The wide variability of Abraxane was rather surprising. The role of therapeutic drug monitoring is to reduce this variability. Though PK profiles for Abraxane and Taxol were similar, there are differences. These differences, however, are small and could be masked by the large variation in PK of Abraxane/Taxol.
To determine whether medication used in assisted reproduction, i.e. FSH (follicle stimulating hormone), we performed a PK analysis using published literature on FSH PK. […] To compare it to 5-FU data, we used variability as SD/Mean.

The subject of data set [2] is patients with metastatic colorectal cancer. The note with it: cited from earlier work.
The mark [3] stands for this setting: initial BSA dose, blood plasma concentration measured.

Broadly, the AUC is the area under the concentration-time curve, a measure of exposure. Consider `O=c1[nH]cc(F)c(=O)[nH]1` [5-FU, 5-fluorouracil], for which the “AUC variability (range as % of the mean)” value in data set [1] is listed as 138%. Also, the “AUC variability as SD/Mean” value in data set [1] is listed as 34.42%. In addition, the area under the curve (AUC) is 9050 ng·h/mL in data set [1] (mean) and 3900 to 16400 ng·h/mL in data set [1] (range). In addition, the Median survival in data set [2] (BSA arm) is 16 months; in data set [2] (personalized 5-FU dose management), 22 months. For the same compound, the Response rate was 18.3% in data set [2] (BSA group (dosing by body surface area)) and 33.6% in data set [2] (dose-adjusted group (PK-guided dosing)). Also, the “Patients found to be over-dosed (doses adjusted downward)” value in data set [2] (setting [3]) is “Seventeen”. In addition, in data set [2] (setting [3]), the “Patients found to be under-dosed (doses adjusted upwards)” value was “Fifty eight”. The “Improvement of overall survival at two years” value in data set [2] (personalized 5-FU dose management versus BSA arm) is 48%. In addition, the “Grade III/IV 5-FU related toxicities” value in data set [2] (personalized dose adjustment versus BSA dosing) is listed as “significantly lower”.
